Source: patent US20210308207A1, “COMPOUNDS COMPRISING A LINKER FOR INCREASING TRANSCYCLOOCTENE STABILITY” (Tagworks Pharmaceuticals B.V., priority 2018, published 2021)
Where a SMILES comes first, the peptide text is derived from it. [ ]: non-standard residue; d: D form. The star is where a group is joined. Dolaproine = CO[C@@H]([C@@H]1CCCN1)[C@@H](C)C(=O)O; Dil = CC[C@H](C)[C@H](NC)[C@@H](CC(=O)O)OC; X1 = C[C@@H](N*)[C@@H](O)c1ccccc1; NMeV = CN[C@H](C(=O)O)C(C)C

How the values were obtained:
AVP0458-TCO-MMAE = experiment: Tetrazine-induced MMAE release from diabody ADC (LC-SIM-MS, D8-MMAE standard); conditions: 37° C., 24 h, PBS/plasma (1/1), 10 equiv of tetrazine
Protocol: MMAE release from diabody ADC (AVP0458-TCO-MMAE) was determined by using a deuterated internal standard D8-MMAE. ADC (1.1×10^−10 moles bound MMAE) and D8-MMAE (1.1×10^−10 moles) and 10 equiv of tetrazine were incubated in 100 uL PBS/plasma (1/1) at 37° C. […] After vortexing, 10 min standing at −20° C. and centrifugation, the supernatants were separated from the protein pellets, diluted with five parts of PBS and the ratio MMAE/D8-MMAE was measured with LC-SIM-MS, affording the release yields (Table 3).

NIH:OVCAR-3 cells = experiment: Cell proliferation (MTT) assay, NIH:OVCAR-3; type: cell-based, human; conditions: NIH:OVCAR-3, 72 h
Protocol: (§1) The human colon cancer LS174T cell line was cultured in RPMI-1640 medium supplemented with 2 mM glutamine and 10% heat inactivated fetal calf serum. The human ovary carcinoma NIH:OVCAR-3 cell line was cultured in RPMI-1640 medium supplemented with 1 mM sodium pyruvate, 10 mM HEPES, 2 mM glutamine, 10 pg/mL bovine insulin and 20% fetal calf serum. The LS174T and NIH:OVCAR-3 cells were plated in 96-well plates at a 5000 cells/well density 24 h prior to the experiment. […] After 72 h incubation at 37° C., cell proliferation was assessed by an MTT assay. The proliferation assay was performed in triplicate.

LS174T cells = experiment: Cell proliferation (MTT) assay, LS174T; type: cell-based, human; conditions: 72 h
Protocol: as §1

Row | SMILES | release (%), induced MMAE release from AVP0458-TCO-MMAE (AVP0458-TCO-MMAE) [%] | EC50 (NIH:OVCAR-3 cells) [nM] | EC50 (LS174T cells) [nM]
1 | Cc1nnc(-c2nccnc2C)nn1 [Compound 4.20] | 59 ± 0.3 |  | 
2 | Cc1nnc(-c2nccc(CNC(=O)OC(C)(C)C)n2)nn1 [Compound 4.17] | 70 ± 0.1 |  | 
3 | Cc1nnc(-c2nccc(C(=O)O)n2)nn1 [Compound 4.23] | 69 ± 0.5 |  | 
4 | Cc1nnc(-c2ccc(NC(=O)CCCC(=O)NCCOCCOCCOCCOCCOCCOCCOCCOCCOCCOCCOCCNC(=O)CN3CCN(CC(=O)O)CCN(CC(=O)O)CCN(CC(=O)O)CC3)cn2)nn1 [Compound 3.4, 2,2′,2″-(10-(44-((6-(6-methyl-1,2,4,5-tetrazin-3-yl)pyridin-3-yl)amino)-2,40,44-trioxo-6,9,12,15,18,21,24,27,30,33,36-undecaoxa-3,39-diazatetratetracontyl)-1,4,7,10-tetraazacyclododecane-1,4,7-triyl)triacetic acid] | 47 ± 0.3 |  | 
5 | Cc1nnc(C)nn1 [Compound 2.1, 3,6-dimethyl-1,2,4,5-tetrazine] | 95 ± 0.4 |  | 
6 | Cc1nnc(-c2cnccn2)nn1 [Compound 4.18] | 55 ± 0.8 |  | 
7 | CN(CCc1nnc(-c2ncccn2)nn1)C(=O)CCCC(=O)NC(CO)(CO)CO [Compound 4.15] | 55 ± 0.4 |  | 
8 | CC[C@H](C)[C@@H]([C@@H](CC(=O)N1CCC[C@H]1[C@H](OC)[C@@H](C)C(=O)N[C@H](C)[C@@H](O)c1ccccc1)OC)N(C)C(=O)[C@@H](NC(=O)[C@@H](NC)C(C)C)C(C)C [MMAE, Monomethyl auristatin E] (H-[NMeV]V[Dil][Dolaproine]-X1) |  | 0.039 | 0.277
9 | Cc1nnc(-c2nccc(CNC(=O)CCCC(=O)O)n2)nn1 [Compound 4.27] | 66 ± 0.5 |  | 
10 | Cc1nnc(-c2nccc(CNC(=O)CN(CCN(CC(=O)O)CC(=O)O)CC(=O)O)n2)nn1 [Compound 4.26] | 59 ± 0.6 |  | 
11 | Cc1nnc(-c2ccncn2)nn1 [Compound 4.19] | 60 ± 0.1 |  | 
12 | Cc1nnc(-c2ncccn2)nn1 [Compound 4.1, 3-methyl-6-(pyrimidin-2-yl)-1,2,4,5-tetrazine] | 69 ± 0.0 |  | 
